This is an account of results in patent US20130030001A1 (priority 2008, published 2013).

The term IC50 denotes the concentration that inhibits the measured activity by half. The low end stands for higher potency, the high end for lower potency.

This assay deals with T1, human muscarinic acetylcholine M3 receptor (Homo sapiens, UniProt P20309).
T1 construct: expressed in transfected cells; host or cells: CHO-K1 (Chinese Hamster Ovary) cell membranes
Nature of the assay: biochemical. The assay is classed as binding. Conditions: M3 binding IC50.

T1 sequence (P20309 whole entry): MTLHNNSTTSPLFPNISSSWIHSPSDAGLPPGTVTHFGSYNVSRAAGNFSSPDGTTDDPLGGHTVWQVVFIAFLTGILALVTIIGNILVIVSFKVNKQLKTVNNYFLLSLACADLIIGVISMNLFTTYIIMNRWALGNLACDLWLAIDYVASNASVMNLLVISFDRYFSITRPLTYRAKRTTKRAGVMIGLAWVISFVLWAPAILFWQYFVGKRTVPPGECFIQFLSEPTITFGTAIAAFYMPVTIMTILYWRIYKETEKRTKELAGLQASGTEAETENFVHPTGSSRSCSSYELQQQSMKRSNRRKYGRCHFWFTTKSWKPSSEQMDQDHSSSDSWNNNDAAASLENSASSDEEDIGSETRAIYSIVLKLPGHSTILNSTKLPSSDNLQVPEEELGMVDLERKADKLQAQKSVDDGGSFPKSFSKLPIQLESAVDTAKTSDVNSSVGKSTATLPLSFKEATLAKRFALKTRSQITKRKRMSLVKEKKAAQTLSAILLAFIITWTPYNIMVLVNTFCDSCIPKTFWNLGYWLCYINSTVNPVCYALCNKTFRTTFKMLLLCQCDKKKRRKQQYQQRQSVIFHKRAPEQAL

The compound `N#Cc1ccc(OCCC[N+]23CCC(CC2)[C@@H](OC(=O)C2(c4ccccc4)CCCCCC2)C3)cc1` [Example 40, (R)-1-[3-(4-Cyano-phenoxy)-propyl]-3-(1-phenyl-cycloheptanecarbonyloxy)-1-azonia-bicyclo[2.2.2]octane bromide] returned a concentration for half-maximal inhibition (IC50) of less than 2 nM.

As for `O=C(C[N+]12CCC(CC1)[C@@H](OC(=O)C1(c3ccccc3)CCCCCC1)C2)Nc1cc(F)ccc1F` [Example 41, (R)-1-[(2,5-Difluoro-phenylcarbamoyl)-methyl]-3-(1-phenyl-cycloheptanecarbonyloxy)-1-azonia-bicyclo[2.2.2]octane bromide], the 50% inhibitory concentration (IC50) was 2 to 10 nM.

For the compound `N#Cc1ccc(COCC[N+]23CCC(CC2)[C@@H](OC(=O)C2(c4ccccc4)CCCCCC2)C3)cc1` [Example 42, (R)-1-[2-(4-Cyano-benzyloxy)-ethyl]-3-(1-phenyl-cycloheptanecarbonyloxy)-1-azonia-bicyclo[2.2.2]octane bromide], the half-maximal inhibitory concentration (IC50) lay in the range of 2 to 10 nM.

For the compound `O=C(C[N+]12CCC(CC1)[C@@H](OC(=O)C1(c3ccccc3)CCCCCC1)C2)Nc1cccc(C(F)(F)F)n1` [Example 43, (R)-3-(1-Phenyl-cycloheptanecarbonyloxy)-1-[(6-trifluoromethyl-pyridin-2-ylcarbamoyl)-methyl]-1-azonia-bicyclo[2.2.2]octane chloride], the IC50 lay within 2 to 10 nM.

For the compound `Cc1ccnc(NC(=O)C[N+]23CCC(CC2)[C@@H](OC(=O)C2(c4ccccc4)CCCCCC2)C3)c1` [Example 44, (R)-1-[(4-Methyl-pyridin-2-ylcarbamoyl)-methyl]-3-(1-phenyl-cycloheptanecarbonyloxy)-1-azonia-bicyclo[2.2.2]octane chloride], the concentration for half-maximal inhibition (IC50) lay within 2 to 10 nM.

Compound `O=C(C[N+]12CCC(CC1)[C@@H](OC(=O)C1(c3ccccc3)CCCCCC1)C2)Nc1ccc(Cl)cn1` [Example 45, (R)-1-[(5-Chloro-pyridin-2-ylcarbamoyl)-methyl]-3-(1-phenyl-cycloheptanecarbonyloxy)-1-azonia-bicyclo[2.2.2]octane chloride] registered a half-inhibitory concentration (IC50) of less than 2 nM.

On to `Cc1ccc(NC(=O)C[N+]23CCC(CC2)[C@@H](OC(=O)C2(c4ccccc4)CCCCCC2)C3)cc1` [Example 46, (R)-3-(1-Phenyl-cycloheptanecarbonyloxy)-1-(p-tolylcarbamoyl-methyl)-1-azonia-bicyclo[2.2.2]octane bromide], for which the IC50 was in the range of 2 to 10 nM.

Compound `Cc1cccc(NC(=O)C[N+]23CCC(CC2)[C@@H](OC(=O)C2(c4ccccc4)CCCCCC2)C3)c1` [Example 47, (R)-3-(1-Phenyl-cycloheptanecarbonyloxy)-1-(m-tolylcarbamoyl-methyl)-1-azonia-bicyclo[2.2.2]octane bromide] had an IC50 of 2 to 10 nM.

`O=C(C[N+]12CCC(CC1)[C@@H](OC(=O)C1(c3ccccc3)CCCCCC1)C2)Nc1ncco1` [Example 48, (R)-1-(Oxazol-2-ylcarbamoylmethyl)-3-(1-phenyl-cycloheptanecarbonyloxy)-1-azonia-bicyclo[2.2.2]octane bromide] returned an IC50 of 2 to 10 nM.

In the case of `Cc1ccc(NC(=O)C[N+]23CCC(CC2)[C@@H](OC(=O)C2(c4ccccc4)CCCCCC2)C3)nn1` [Example 49, (R)-1-[(6-Methyl-pyridazin-3-ylcarbamoyl)-methyl]-3-(1-phenyl-cycloheptanecarbonyloxy)-1-azonia-bicyclo[2.2.2]octane bromide], the IC50 was less than 2 nM.

Turning to `O=C(C[N+]12CCC(CC1)[C@@H](OC(=O)C1(c3ccccc3)CCCCCC1)C2)Nc1ncccn1` [Example 50, (R)-3-(1-Phenyl-cycloheptanecarbonyloxy)-1-(pyrimidin-2-ylcarbamoylmethyl)-1-azonia-bicyclo[2.2.2]octane chloride], the IC50 is less than 2 nM.

Compound `N#Cc1ccc(NC(=O)C[N+]23CCC(CC2)[C@@H](OC(=O)C2(c4ccccc4)CCCCCC2)C3)nc1` [Example 51, (R)-1-[(5-Cyano-pyridin-2-ylcarbamoyl)-methyl]-3-(1-phenyl-cycloheptanecarbonyloxy)-1-azonia-bicyclo[2.2.2]octane chloride] had a 50% inhibitory concentration (IC50) of 2 to 10 nM.

With `O=C(C[N+]12CCC(CC1)[C@@H](OC(=O)C1(c3ccccc3)CCCCCC1)C2)Nc1cncnc1` [Example 52, (R)-3-(1-Phenyl-cycloheptanecarbonyloxy)-1-(pyrimidin-5-ylcarbamoylmethyl)-1-azonia-bicyclo[2.2.2]octane chloride], the IC50 was less than 2 nM.

As for `O=C(C[N+]12CCC(CC1)[C@@H](OC(=O)C1(c3ccccc3)CCCCCC1)C2)Nc1ncccc1F` [Example 53, (R)-1-[(3-Fluoro-pyridin-2-ylcarbamoyl)-methyl]-3-(1-phenyl-cycloheptanecarbonyloxy)-1-azonia-bicyclo[2.2.2]octane chloride], the IC50 lay within 2 to 10 nM.

In turn, `O=C(C[N+]12CCC(CC1)[C@@H](OC(=O)C1(c3ccccc3)CCCCCC1)C2)Nc1ccncc1F` [Example 54, (R)-1-[(3-Fluoro-pyridin-4-ylcarbamoyl)-methyl]-3-(1-phenyl-cycloheptanecarbonyloxy)-1-azonia-bicyclo[2.2.2]octane chloride] had an IC50 of less than 2 nM.

For the compound `O=C(NCC[N+]12CCC(CC1)[C@@H](OC(=O)C1(c3ccccc3)CCCCCC1)C2)c1cnccn1` [Example 55, (R)-3-(1-Phenyl-cycloheptanecarbonyloxy)-1-{2-[(pyrazine-2-carbonyl)-amino]-ethyl}-1-azonia-bicyclo[2.2.2]octane bromide], the IC50 was in the range of 2 to 10 nM.

Compound `O=C(C[N+]12CCC(CC1)[C@@H](OC(=O)C1(c3ccccc3)CCCCCC1)C2)Nc1ncns1` [Example 56, (R)-3-(1-Phenyl-cycloheptanecarbonyloxy)-1-([1,2,4]thiadiazol-5-ylcarbamoylmethyl)-1-azonia-bicyclo[2.2.2]octane chloride] had an IC50 of 2 to 10 nM.

`O=C(NCCC[N+]12CCC(CC1)[C@@H](OC(=O)C1(c3ccccc3)CCCCCC1)C2)c1ccccn1` [Example 57, (R)-3-(1-Phenyl-cycloheptanecarbonyloxy)-1-{3-[(pyridine-2-carbonyl)-amino]-propyl}-1-azonia-bicyclo[2.2.2]octane bromide]: the 50% inhibitory concentration (IC50) lay in the range of 2 to 10 nM.

`Cc1cc(NC(=O)C[N+]23CCC(CC2)[C@@H](OC(=O)C2(c4ccccc4)CCCCCC2)C3)ncn1` [Example 59, (R)-1-[(6-Methyl-pyrimidin-4-ylcarbamoyl)-methyl]-3-(1-phenyl-cycloheptanecarbonyloxy)-1-azonia-bicyclo[2.2.2]octane chloride] gave an IC50 of 2 to 10 nM.

Compound `O=C(NCC[N+]12CCC(CC1)[C@@H](OC(=O)C1(c3ccccc3)CCCCCC1)C2)c1ccccn1` [Example 60, (R)-3-(1-Phenyl-cycloheptanecarbonyloxy)-1-{2-[(pyridine-2-carbonyl)-amino]-ethyl}-1-azonia-bicyclo[2.2.2]octane bromide] returned an IC50 of less than 2 nM.

Regarding `O=C(O[C@H]1C[N+]2(CCCc3ccncc3)CCC1CC2)C1(c2ccccc2)CCCCCC1` [Example 61, (R)-3-(1-Phenyl-cycloheptanecarbonyloxy)-1-(3-pyridin-4-yl-propyl)-1-azonia-bicyclo[2.2.2]octane bromide], the IC50 is less than 2 nM.
